# Data from patent publication US12667571B2, “Uridine phosphorylase (UPase) inhibitors for treatment of liver conditions” (Tosk, Inc., priority 2019, dated 2026).
# Entries after “also recorded” stand apart in the source; their conditions may differ.
# Key:
# [1] = Elimination t1/2 of Compound 1 in mice; conditions: mouse, in vivo
# [2] = tested on: plasma UR; assay: Plasma UR concentration versus plasma Compound 1 concentration after continuous sc osmotic-pump infusion; format: in vivo; conditions: BDF-1 male mice, result in words
# Protocol: For this reason continuous infusion of compound I (authentic TK-112690, Batch TCY90108) to BDF-1 ♂ mice were administered via a sc implanted osmotic pumps and the UR plasma concentration measured, ^46 Deng Y, Wang Z V, Gordillo R, An Y, Zhang C, Liang Q, Yoshino J, Cautivo K M, De Brabander J, Elrnquist J K, Horton J D, Hill J A, Klein S, Scherer P E. An adipo-biliary-uridine axis that regulates energy homeostasis. Science 2017, 17; 355(6330)
# Solutions of Compound I were prepared at a concentration of 500 mg/mL in sterile PBS. Osmotic pumps (ALZET® micro-osmotic pump 2001 D and 1003D, Alza Co) were loaded with 200 μL (2001D osmotic pump) and/or 100 μL (1003D osmotic pump) of TK-112690 solution.
# BDF-1 male mice (n=6) were treated with a constant-rate infusion of 667, 833 or 3000 mg/kg/day doses of Compound I delivered via subcutaneously implanted osmotic pumps. Animals were anesthetized with 100 mg/kg ketamine prior to pump implantation. Surgical scissors were used to make an approximately 1 cm incision on the dorsal surface near the shoulder blade of animals. A hemostat was used to carve out a subcutaneous tunnel toward the anterior end of animal. Osmotic pumps were placed inside the subcutaneous tunnel. […]
# A solid-phase extraction (SPE) of analytes (UR, Compound I and 5-FU) from plasma was conducted before HPLC analysis. […] Samples were transferred into fresh HPLC vials and analyzed. […]
# [3] = tested on: C57BL/6 mice fed an MCD diet; assay: Methionine-choline deficient diet (MCD) model of NASH; format: in vivo; conditions: end of MCD study; ip bid 28 days
# Protocol: Mice fed an MCD diet is a standard model of diet induced NASH.^47,48 All animals were housed in ventilated standard housing cages throughout the experimental phase. Tap water was provided ad libitum to all animals. Male, 8-week old, C57BL/6 mice from Charles River were acclimated for 3 days maintained on a standard chow diet and group housed in hepa-filtered cages (5 animals per cage) on a normal 12 hours light cycle (at 8 am to 8 pm lights off). The temperature and humidity were 22±2° C. and 50±10%, respectively. Cages litters were changed once a week. ^47 Reid D T, Reyes J L, McDonald B A, Vo T, Reimer R A, Eksteen B. Kupffer Cells Undergo Fundamental Changes during the Development of Experimental NASH and Are Critical in Initiating Liver Damage and Inflammation. PLoS One. 2016, 25; 11:e0159524.^48 Ramadori P, Weiskirchen R, Trebicka J, Streetz K. Mouse models of metabolic liver injury. Lab Anim. 2015; 49(1 Suppl):47-58.
# Following acclimation, the animals were randomized into homogenous treatment groups according to their body weight, and fed ad libitum a diet deficient in methionine and choline: 4.2 kcal/g; MP Biomedicals, Solon, OH). Food and water intake were measured 3 times per week (at the same time as body weight measurements). After the acclimation period, the 24 mice (n=6/treatment group) were weighed 3 times per week until sacrifice.
# The 4 treatment group were: • Group 1: Vehicle+MCD • Group 2: MCD+200 mg/kg UR • Group 3: MCD+60 mg/kg Compound I • Group 4: MCD+60 mg/kg Compound 1 plus 200 mg/kg UR 30 minutes post Compound 1
# All Compound 1 and UR doses (mg/kg in 10 mL/kg of vehicle) were ip, bid at least 8 hours apart, for 28 days. Vehicle=PBS. Vehicle, UR and Compound 1±UR will be dosed daily starting 2 days prior to placing the animals on a MCD diet. Mice were on the MCD diet for 26 days.
# After 26 days on MCD, the animals were sacrificed ˜2 hours after the last dose and non-fasted glucose was measured along with a plasma lipid panel, TNF-α, ALT and AST. Total body weight was determined weekly. Total liver was weighed and the medial lobe excised, formalin fixed and stained with Oil Red O to evaluate lipid content. An intensity score for the fixed tissue slides measured by an independent histopathologist was also determined.
# [4] = tested on: C57BL/6 mice fed an MCD diet; assay: as above; format: in vivo; conditions: H&E liver sections, end of MCD study; ip bid 28 days; FIG. 4
# [5] = UR, reference 46; cited from earlier work
Structure (SMILES),half-life [1],effect on plasma UR level [2],ALT [3],AST [3],cholesterol [3],total triglycerides [3],liver fibrosis scoring compared to vehicle treated controls [4],elimination t1/2 [5]
Cc1cn2c(nc1=O)O[C@H]1[C@H](O)[C@@H](CO)O[C@H]12 [Compound 1],1 to 2 h,elevate plasma UR in a linear fashion; also recorded: associated with higher levels of UR,no difference,no difference,no difference,no difference,statistically different,
"O=c1ccn([C@@H]2O[C@H](CO)[C@@H](O)[C@H]2O)c(=O)[nH]1 [UR, uridine]",,,no difference,no difference,no difference,no difference,statistically different,only a few minutes
